Laboratory results published in article PMC8911803, “The Antiprotozoal Activity of Papua New Guinea Propolis and Its Triterpenes” (Molecules, 2022).
“And” between values parts separate entries of the source, which are not always exact repeats. Equal entries are not always repeated. Where two headings read alike, the source gives them in different places.

Experiments:
T. congolense 6C3 = experiment: microbe, parasite or virus in culture; type: cell-based, Trypanosoma congolense; settings: for RF resistance factor: T. congolense 6C3 vs IL3000
T. congolense IL3000 = experiment: Antiprotozoal assay, drug-sensitive T. congolense IL3000; type: cell-based, Trypanosoma congolense
T. b. brucei B48 [1] = experiment: microbe, parasite or virus in culture; type: cell-based, Trypanosoma b. brucei; settings: for RF resistance factor / RF resistance factor (EC50 B48/EC50 WT): T. b. brucei B48 vs S427WT
Method: (§1) Alamar blue (resazurin) assays were used to obtain the EC50 values for PNG and its fractions in at least three independent determinations.
(§2) The extract and the purified compounds were cultured and tested against T. b. brucei, T. congolense and C. fasciculata as described previously. The T. b. brucei strains were a standard drug-sensitive lab strain, Lister 427 (wild-type) and the derived cell line B48 was developed from the wild-type by gene deletion of the drug transporter TbAT1 followed by in vitro adaptation to pentamidine, leading to the further loss of the gene encoding TbAQP2 [48], rendering it highly resistant to the diamidine and melaminophenyl arsenical classes of trypanocides. The T. congolense strains were the lab strain IL3000 and its diminazene-adapted clone 6C3 [29]. The C. fasciculata strain HS6 was a gift of Prof. Terry Smith (University of St Andrews, UK).

U937 cells = experiment: Cytotoxicity against U937 cells (resazurin); type: cell-based, human; settings: for EC50 / AVG EC50 U937 cells: n = 3; for SI, selectivity index relative to T. b. brucei WT: EC50(U937)/EC50(TbbWT): U937 vs T. b. brucei WT
Method: U937 cells (European Collection of Cell Cultures Cat. No. 85011440, supplied by Sigma Aldrich, Dorset, UK) were cultured as described previously. U937 cells were grown to log phase at 37 °C and harvested at a density of 1 × 10^5 cells/mL in a 96-well plate (TPP, Trasadingen, Switzerland). Aliquots of 100 µL/well of the cells were added and the plate was incubated for 24 h at 37 °C, 5% CO2, 100% humidity. A 2-fold serial dilution of the test compound was carried out in growth medium, in another 96-well plate, and 100 μL of each dilution was then transferred to the cultured cells using a multichannel pipette, followed by another incubation for 24 h. Resazurin dye was then added at a final concentration of 10% (v/v) and the plates were incubated for a further 24 h, after which fluorescence was measured using a Wallac Victor 2 microplate reader (λ Ex/Em: 560/590 nm). The compounds and fractions were tested in triplicate, and cell viability was expressed as a percentage of the drug-free control. The resulting data were analysed using GraphPad Prism 8 to obtain dose-response curves and corresponding mean inhibitory concentration (EC50) values.

T. b. brucei S427WT = experiment: Alamar blue (resazurin) assay, T. b. brucei s427 wild-type; type: cell-based, Trypanosoma b. brucei
Method: as §1, §2

C. fasciculata = experiment: Antiprotozoal assay, C. fasciculata; type: cell-based, Crithidia fasciculata; settings: Table 9
T. b. brucei B48 [2] = experiment: Drug sensitivity using cell count (growth curve) of T. b. brucei B48; type: cell-based, Trypanosoma b. brucei; settings: 1×, 2× and 4× EC50, 2 × 10^5 cells/mL, up to 48 h
[3] = Trypanosoma congolense, Table 7, purified compounds, n = 3
[4] = Trypanosoma congolense, Table 7, purified compounds, n = 3, read-out: AVG EC50 T. congolense IL3000
[5] = Trypanosoma brucei, read-out: AVG EC50 T. b. brucei B48, Table 5, purified compounds, n = 3
[6] = Homo sapiens, U-937, Table 8, purified compounds
[7] = Trypanosoma brucei, Table 5, purified compounds, n = 3
[8] = Table 7, purified compounds, n = 3
[9] = drug-resistant strain vs standard strain
[10] = Table 5, purified compounds, n = 3
[11] = Table 5, purified compounds, n = 3, read-out: AVG EC50 T. b. brucei B48

Structure (SMILES): N=C(N)c1ccc(/N=N/Nc2ccc(C(=N)N)cc2)cc1 [Diminazene, reference compound]
- RF resistance factor (T. congolense 6C3; Table 6): 5.90
- RF resistance factor (T. congolense 6C3; Table 7): 5.5
- EC50 (T. congolense 6C3; Trypanosoma congolense, Table 6, diminazene control, footnote: EC50 in µM): 1.54 µM
- EC50 (T. congolense 6C3; [3]): 1.55 µM
- EC50 (T. congolense IL3000; Trypanosoma congolense, read-out: AVG EC50 T. congolense IL3000, Table 6, diminazene control, footnote: EC50 in µM): 0.26 µM
- EC50 (T. congolense IL3000; Trypanosoma congolense, read-out: AVG EC50 T. congolense IL3000, Table 7, purified compounds, n = 3): 0.28 µM

Structure (SMILES): C=C(C)[C@@H]1CC[C@]2(CO)CC[C@]3(C)[C@H](CC[C@@H]4[C@@]5(C)CC[C@H](O)C(C)(C)[C@@H]5CC[C@]43C)[C@@H]12 [Betulin, betulin]
- RF resistance factor (T. congolense 6C3; Table 7): 1.03
- EC50 (T. congolense 6C3; [3]): 22.1 µg/mL and 49.9 µM
- EC50 (T. congolense IL3000; [4]): 21.5 µg/mL
- RF resistance factor (T. b. brucei B48 [1]; Table 5): 0.84
- EC50 (T. b. brucei B48 [1]; [5]): 22.3 µg/mL and 50.5 µM
- EC50 (U937 cells; [6]): 55.8 µg/mL and 126 µM
- SI, selectivity index relative to T. b. brucei WT: EC50(U937)/EC50(TbbWT) (U937 cells): 2.1
- EC50 (T. b. brucei S427WT; [7]): 26.6 µg/mL and 60.1 µM

Structure (SMILES): C=C(C)[C@@H]1CC[C@]2(C(=O)O)CC[C@]3(C)[C@H](CC[C@@H]4[C@@]5(C)CC[C@H](O)C(C)(C)[C@@H]5CC[C@]43C)[C@@H]12 [Betulinic acid, betulinic acid]
- RF resistance factor (T. congolense 6C3; Table 7): 1.05
- EC50 (T. congolense 6C3; [3]): 18.1 µg/mL
- EC50 (T. congolense IL3000; [4]): 17.2 µg/mL
- RF resistance factor (T. b. brucei B48 [1]; Table 5): 0.81
- EC50 (T. b. brucei B48 [1]; [5]): 19.6 µg/mL and 42.9 µM
- EC50 (U937 cells; [6]): 51.7 µg/mL and 113 µM
- SI, selectivity index relative to T. b. brucei WT: EC50(U937)/EC50(TbbWT) (U937 cells): 2.1
- EC50 (T. b. brucei S427WT; [7]): 24.2 µg/mL and 53.1 µM

Structure (SMILES): C[C@H]1[C@H](C)CC[C@]2(C(=O)O)CC[C@]3(C)C(=CC[C@@H]4[C@@]5(C)C[C@@H](O)[C@H](O)[C@@](C)(CO)[C@@H]5[C@H](O)C[C@]43C)[C@H]12 [Madecassic acid, madecassic acid]
- RF resistance factor (T. congolense 6C3; Table 7): 0.88
- EC50 (T. congolense 6C3; [3]): 19.8 µg/mL and 59.1 µM
- EC50 (T. congolense IL3000; [4]): 22.6 µg/mL and 67.6 µM
- RF resistance factor (T. b. brucei B48 [1]; Table 5): 0.88
- EC50 (T. b. brucei B48 [1]; [5]): 16 µg/mL and 31.7 µM
- EC50 (U937 cells; [6]): 90.7 µg/mL and 180 µM
- SI, selectivity index relative to T. b. brucei WT: EC50(U937)/EC50(TbbWT) (U937 cells): 5.0
- EC50 (T. b. brucei S427WT; [7]): 18.1 µg/mL and 36 µM

Structure (SMILES): CC(C)(O)[C@@H]1CC[C@]2(CO)CC[C@]3(C)[C@H](CC[C@@H]4[C@@]5(C)CC[C@H](O)C(C)(C)[C@@H]5CC[C@]43C)[C@@H]12 [Hydroxybetulin, 20-hydroxybetulin]
- RF resistance factor (T. congolense 6C3; Table 6): 0.48
- AVG EC50 T. congolense 6C3 (T. congolense 6C3; Table 6, diminazene-resistant, n = 3): 6.09 µg/mL
- AVG EC50 T. congolense 6C3 (T. congolense 6C3; [8]): 2.77 µg/mL
- EC50 (T. congolense 6C3; [8]): 6.09 µM
- fold activity against drug-resistant strain of T. congolense (T. congolense 6C3; [9]): > 2 fold
- AVG EC50 T. congolense IL3000 (T. congolense IL3000; Table 6, n = 3): 5.77 µg/mL
- AVG EC50 T. congolense IL3000 (T. congolense IL3000; [8]): 5.77 µg/mL
- AVG EC50 T. congolense IL3000 (T. congolense IL3000; Table 7, purified compounds, n = 3, listed as hydroxybetulin): 5.8 ± 1.3 µg/mL
- RF resistance factor (EC50 B48/EC50 WT) (T. b. brucei B48 [1]; Table 3): 0.47
- AVG EC50 T. b. brucei B48 (T. b. brucei B48 [1]; Table 3, pentamidine-resistant, n = 3): 2.09 µg/mL
- RF resistance factor (T. b. brucei B48 [1]; Table 5): 0.47
- AVG EC50 T. b. brucei B48 (T. b. brucei B48 [1]; [10]): 0.97 µg/mL
- EC50 (T. b. brucei B48 [1]; [11]): 2.09 µM
- fold activity against drug-resistant strain of T. b. brucei (T. b. brucei B48 [1]; [9]): > 2 fold
- AVG EC50 U937 cells (U937 cells; Table 4): 47.0 µg/mL
- AVG EC50 U937 cells (U937 cells; Table 8, purified compounds): 47.0 µg/mL
- EC50 (U937 cells; Table 8, purified compounds): 102000 nM
- SI, selectivity index relative to T. b. brucei WT: EC50(U937)/EC50(TbbWT) (U937 cells): 23.0
- selectivity index against WT T. congolense (U937 cells; U937 vs WT T. congolense): 8.1
- selectivity index against resistant T. brucei (U937 cells; U937 vs resistant T. brucei): 48.5
- selectivity index against resistant T. congolense (U937 cells; U937 vs resistant T. congolense): 17.0
- AVG EC50 T. b. brucei S427WT (T. b. brucei S427WT; Table 3, n = 3): 2.04 µg/mL
- AVG EC50 T. b. brucei S427WT (T. b. brucei S427WT; [10]): 2.04 µg/mL
- EC50 (T. b. brucei S427WT; [10]): 4.44 µM
- AVG EC50 T. b. brucei S427WT (T. b. brucei S427WT; Table 5, purified compounds, n = 3, listed as hydroxybetulin): 2.0 ± 0.1 µg/mL
- fold more active than betulinic acid against T. b. brucei (T. b. brucei S427WT; relative to betulinic acid): 15 fold
- AVG EC50 C. fasciculata (C. fasciculata): 23.4 µg/mL
- Effect on in vitro growth of T. b. brucei B48 (cell count over time) (T. b. brucei B48 [2]): more trypanostatic effect
- Effect on in vitro growth of T. b. brucei B48 (cell count over time) (T. b. brucei B48 [2]; listed as 20-hydroxybetulin): trypanostatic

Structure (SMILES): N=C(N)c1ccc(OCCCCCOc2ccc(C(=N)N)cc2)cc1 [Pentamidine, pentamidine, reference compound]
- RF resistance factor (EC50 B48/EC50 WT) (T. b. brucei B48 [1]; Table 3): 210
- RF resistance factor (EC50 B48/EC50 WT) (T. b. brucei B48 [1]; Table 3, listed as pentamidine): 210.8
- RF resistance factor (T. b. brucei B48 [1]; Table 5): 145
- EC50 (T. b. brucei B48 [1]; Trypanosoma brucei, read-out: AVG EC50 T. b. brucei B48, Table 3, pentamidine control, footnote: values in µM): 0.721 µM
- EC50 (T. b. brucei B48 [1]; [5]): 0.62 µM
- EC50 (T. b. brucei S427WT; Trypanosoma brucei, Table 3, pentamidine control, footnote: values in µM): 0.0034 µM
- EC50 (T. b. brucei S427WT; [7]): 0.0043 µM
- Effect on in vitro growth of T. b. brucei B48 (cell count over time) (T. b. brucei B48 [2]): parasites were almost completely eliminated from the media after 32 h

Structure (SMILES): CC(CC/C=C(/CO)C(=O)O)C1CCC2(C)C3CCC4C(C)(C)C(O)CCC45CC35CCC12C (stereo not shown) [Hydroxymangiferolic acid, 27-hydroxyisomangiferolic acid]
- RF resistance factor (T. congolense 6C3; Table 7): 0.94
- AVG EC50 T. congolense 6C3 (T. congolense 6C3; [8]): 15.7 µg/mL
- EC50 (T. congolense 6C3; [8]): 33.2 µM
- AVG EC50 T. congolense IL3000 (T. congolense IL3000; [8]): 16.7 µg/mL
- EC50 (T. congolense IL3000; Table 7, purified compounds, n = 3, read-out: AVG EC50 T. congolense IL3000): 35.3 µM
- RF resistance factor (T. b. brucei B48 [1]; Table 5): 0.87
- AVG EC50 T. b. brucei B48 (T. b. brucei B48 [1]; [10]): 11.8 µg/mL
- EC50 (T. b. brucei B48 [1]; [11]): 25 µM
- EC50 (U937 cells; Table 8, purified compounds): 260000 nM
- SI, selectivity index relative to T. b. brucei WT: EC50(U937)/EC50(TbbWT) (U937 cells): >7.4
- AVG EC50 T. b. brucei S427WT (T. b. brucei S427WT; [10]): 13.6 µg/mL
- EC50 (T. b. brucei S427WT; [10]): 28.8 µM
